# Literature values, collected in US5380533A, “Gastroresistant pharmaceutical formulations for oral administration containing bile acids” (Alfa Wassermann S.p.A., priority 1991, dated 1995).
# Assays:
# [1] = free bile acid
# [2] = pH units
# [3] = intestinal pH below 8.4; intestinal bacterial flora
# [4] = after having crossed unabsorbed and undissolved the stomach
structure (smiles),measurement,setting,value
C[C@H](CCC(=O)O)[C@H]1CC[C@H]2[C@@H]3[C@@H](O)C[C@@H]4C[C@H](O)CC[C@]4(C)[C@H]3CC[C@]12C [ursodeoxycholic acid],water solubility,[1],53 µM
same,pH at which complete solubilization takes place,[2],8.47
same,fate of a portion at lower values of intestinal pH,[3],is not absorbed and undergoes a biotransformation to lithocholic acid
same,dissolution in the intestine,[4],dissolve very slowly in the intestine
